How the values were obtained:
PARP1 GST = PARP1 GST (Homo sapiens (Human), UniProt P09874); experiment: TR-FRET binding assay, PARP1; conditions: Probe 2, 2 hours incubation
Outline: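 Serially diluted compounds, final 30 μM down to 0.5 nM, incubated 2 h at ambient temperature with GST-tagged protein/probe mix plus 1 nM Tb-anti-GST antibody. Buffer: 50 mM Tris-HCl pH 8.0, 5 mM MgCl2, 5 μM ZnCl2, 1 mM DTT, 0.15% BSA, 0.01% Triton X-100. Binding read as TR-FRET ratio.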

DLD-1 BRCA2 (−/−) cells = experiment: CellTiter-Glo DLD-1 BRCA2 (−/−) cell assay for PARP1/2 inhibition; format: cell-based; conditions: 6 days, read-out: DLD-1 BRCA2 (−/−) CTG EC50
Outline: (§1)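 DLD-1 parent (500 cells/well) and DLD-1 BRCA2 (−/−) (1200 cells/well) cells in RPMI 1640 with 10% FBS exposed to compounds at 30 μM to 0.5 nM (3-fold dilutions) for 6 days at 37° C. Viability read by CellTiter-Glo luminescence on day 7.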

TIPARP GST-(TEV) = TIPARP GST-(TEV) (Homo sapiens (Human), UniProt Q7Z3E1); experiment: TR-FRET binding assay, TIPARP; conditions: for IC50: TR-FRET, Probe 1, 2 hours incubation; for PARP1/TIPARP IC50 Ratio: ratio of PARP1 GST IC50 to TIPARP GST-(TEV) IC50
Sequence of TIPARP GST-(TEV) (Q7Z3E1 441-657): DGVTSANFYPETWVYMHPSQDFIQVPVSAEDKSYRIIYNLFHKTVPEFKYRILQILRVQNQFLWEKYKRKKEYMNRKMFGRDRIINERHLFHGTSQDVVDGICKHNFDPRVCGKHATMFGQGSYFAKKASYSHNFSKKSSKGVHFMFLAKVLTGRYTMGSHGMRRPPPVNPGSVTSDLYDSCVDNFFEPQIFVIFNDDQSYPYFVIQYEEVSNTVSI
Outline: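 N-terminal GST-TEV-tagged human TIPARP with protein/probe mix in 50 mM Tris-HCl pH 8.0, 5 mM MgCl2, 5 µM ZnCl2, 1 mM DTT, 0.15% BSA, 0.01% Triton X-100, plus 1 nM Tb-anti-GST antibody. Compounds at 30 µM to 0.5 nM final, 3-fold steps. TR-FRET ratio read after 2 h at ambient temperature.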

DLD-1 parent cells = experiment: CellTiter-Glo DLD-1 parent cell assay; format: cell-based; conditions: 6 days, read-out: DLD-1 CTG EC50
Outline: as §1

NCI-H1373 cells = experiment: NCI-H1373 CellTiter-Glo cell assay for TIPARP inhibition; format: cell-based, human; conditions: 6 days, 100 nM 10-Cl-BBQ in medium; read-out: NCI-H1373 CTG EC50
Outline: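 NCI-H1373 cells (1000/well) grown in RPMI 1640 with 10% FBS and 100 nM 10-Cl-BBQ, exposed to compounds from 30 μM to 0.5 nM final in 3-fold steps for 6 days at 37° C. Cell number read on day 7 by CellTiter-Glo luminescence.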

Sequence of PARP1 GST (P09874 whole entry): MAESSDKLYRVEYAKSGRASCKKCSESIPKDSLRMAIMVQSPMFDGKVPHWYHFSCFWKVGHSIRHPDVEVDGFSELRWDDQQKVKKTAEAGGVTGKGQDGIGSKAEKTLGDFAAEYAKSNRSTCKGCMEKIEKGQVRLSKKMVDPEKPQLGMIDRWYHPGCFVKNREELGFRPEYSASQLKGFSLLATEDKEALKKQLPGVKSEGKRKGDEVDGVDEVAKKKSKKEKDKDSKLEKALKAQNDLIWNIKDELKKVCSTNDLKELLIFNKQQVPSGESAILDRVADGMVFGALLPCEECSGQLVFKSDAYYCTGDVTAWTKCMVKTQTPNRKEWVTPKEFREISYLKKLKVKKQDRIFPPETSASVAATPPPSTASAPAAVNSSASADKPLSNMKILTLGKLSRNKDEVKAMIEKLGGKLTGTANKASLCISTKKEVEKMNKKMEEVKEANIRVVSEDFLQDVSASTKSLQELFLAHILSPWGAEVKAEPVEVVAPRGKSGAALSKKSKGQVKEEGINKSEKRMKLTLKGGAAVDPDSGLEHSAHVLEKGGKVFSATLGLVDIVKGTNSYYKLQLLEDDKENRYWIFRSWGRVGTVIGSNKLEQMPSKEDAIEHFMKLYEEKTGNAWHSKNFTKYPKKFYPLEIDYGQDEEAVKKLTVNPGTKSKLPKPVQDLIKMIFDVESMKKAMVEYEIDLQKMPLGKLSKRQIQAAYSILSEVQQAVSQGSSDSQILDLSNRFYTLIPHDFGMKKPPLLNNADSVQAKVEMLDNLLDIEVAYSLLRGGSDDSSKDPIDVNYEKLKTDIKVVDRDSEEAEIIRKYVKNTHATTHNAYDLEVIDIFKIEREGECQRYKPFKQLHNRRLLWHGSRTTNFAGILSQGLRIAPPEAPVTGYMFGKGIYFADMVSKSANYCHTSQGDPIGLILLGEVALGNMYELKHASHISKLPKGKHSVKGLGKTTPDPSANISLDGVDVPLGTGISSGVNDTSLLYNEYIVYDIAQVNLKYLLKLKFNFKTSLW

Row | Compound | IC50 (PARP1 GST) [nM] | EC50 (DLD-1 BRCA2 (−/−) cells) [nM] | IC50 (TIPARP GST-(TEV)) [nM] | PARP1/TIPARP IC50 Ratio (TIPARP GST-(TEV)) | EC50 (DLD-1 parent cells) [nM] | EC50 (NCI-H1373 cells) [nM]
1 | C[C@@H]1CN(c2ncc(C(F)(F)F)cn2)CCN1C(=O)[C@H]1C[C@H](c2c[nH]c(=O)c(C(F)(F)F)c2)C1 [Example 25, 5-[(1R,3r)-3-{(2R)-2-methyl-4-[5-(trifluoromethyl)pyrimidin-2-yl]piperazine-1-carbonyl}cyclobutyl]-3-(trifluoromethyl)pyridin-2(1H)-one] | 2030 | > 30000 | 2000 | 1.02 | > 30000 | 10200
2 | O=c1[nH]cc([C@H]2C[C@H](C(=O)N3CCN(c4ncc(C(F)(F)F)cn4)CC3)C2)cc1C(F)(F)F [Example 26, 3-(trifluoromethyl)-5-[(1r,3r)-3-{4-[5-(trifluoromethyl)pyrimidin-2-yl]piperazine-1-carbonyl}cyclobutyl]pyridin-2(1H)-one] | 1280 | > 30000 | 1620 | 0.790 | > 30000 | 9100
3 | CC(C)(O)c1cnc(N2CCN(C(=O)[C@H]3C[C@@H](Cc4c[nH]c(=O)c(C(F)(F)F)c4)C3)CC2)nc1 [Example 27, 5-{[(1s,3s)-3-{4-[5-(2-hydroxypropan-2-yl)pyrimidin-2-yl]piperazine-1-carbonyl}cyclobutyl]methyl}-3-(trifluoromethyl)pyridin-2(1H)-one] | 231 | 894 | 2.34 | 98.7 | > 30000 | 38.7
4 | CC(C)(O)c1cnc(N2CCN(C(=O)[C@H]3C[C@@H](c4c[nH]c(=O)c(C(F)(F)F)c4)C3)CC2)nc1 [Example 28, 5-[(1s,3s)-3-{4-[5-(2-hydroxypropan-2-yl)pyrimidin-2-yl]piperazine-1-carbonyl}cyclobutyl]-3-(trifluoromethyl)pyridin-2(1H)-one] | 507 | 5450 | 5.69 | 89.1 | > 30000 | 174
5 | O=c1[nH]cc(C[C@H]2C[C@@H](C(=O)N3CCN(c4ncc(C(F)(F)F)cn4)CC3)C2)cc1C(F)(F)F [Example 29, 3-(trifluoromethyl)-5-{[(1s,3s)-3-{4-[5-(trifluoromethyl)pyrimidin-2-yl]piperazine-1-carbonyl}cyclobutyl]methyl}pyridin-2(1H)-one] | 263 | 230 | 1.75 | 150 | 5960 | 18.2
